{
  "source": "patent US12612395B2",
  "about": "“Rocaglate derivatives and uses thereof” (TRUSTEES OF BOSTON UNIVERSITY, priority 2023, dated 2026)",
  "key": {"[1]": {"target": "DDX3X:FAM-labeled poly r(AG)8 (Homo sapiens, UniProt O00571)", "sequence (O00571 whole entry, species assumed)": "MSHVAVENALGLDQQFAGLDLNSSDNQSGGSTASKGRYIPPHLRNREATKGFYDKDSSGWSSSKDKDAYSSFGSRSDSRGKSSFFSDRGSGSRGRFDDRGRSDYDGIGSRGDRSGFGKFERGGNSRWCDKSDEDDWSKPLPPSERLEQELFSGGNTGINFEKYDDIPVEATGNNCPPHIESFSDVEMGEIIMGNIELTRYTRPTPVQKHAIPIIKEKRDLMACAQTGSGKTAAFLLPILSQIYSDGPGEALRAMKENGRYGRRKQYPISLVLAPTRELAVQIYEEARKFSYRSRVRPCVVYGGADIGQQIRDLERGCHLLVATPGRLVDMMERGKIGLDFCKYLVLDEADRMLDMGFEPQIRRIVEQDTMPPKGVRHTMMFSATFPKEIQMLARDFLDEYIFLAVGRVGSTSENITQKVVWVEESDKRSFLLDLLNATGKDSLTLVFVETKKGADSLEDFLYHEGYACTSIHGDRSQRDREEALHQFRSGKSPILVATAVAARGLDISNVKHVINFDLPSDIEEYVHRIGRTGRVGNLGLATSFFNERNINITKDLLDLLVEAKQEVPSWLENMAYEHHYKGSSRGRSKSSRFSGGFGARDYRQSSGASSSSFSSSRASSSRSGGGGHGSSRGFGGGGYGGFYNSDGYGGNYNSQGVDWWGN", "test": "Fluorescence polarization (FP) RNA clamping assay, DDX3X", "type": "binding", "conditions": "1 mM ATP; for stimulation of DDX3X:(AG)8 complex formation in protein titration, in words: 50 μM rocaglate; for stimulation of DDX3X binding to RNA (change in polarization), in words: compound 10 μM", "source_text": "(§1) Given these observations, the inventors next sought to interrogate the effects of compound (−)-20 in secondary assays for both eIF4A and DDX3 engagement. […] While inherent differences between the FP assay conditions (e.g. probe affinity, protein mobility in FP buffer) preclude direct comparison of absolute AmP values across the two different proteins, the inventors noted that relative anti-CSC potencies for these compounds ((−)-7>(−)-5≈(−)-20) were similar to their relative degrees of clamping for DDX3X and eIF4A1. To follow up on these findings, the inventors performed in vitro translation experiments using a bicistronic mRNA reporter construct FF-HCV-Ren, where translation of the firefly luciferase (FF) cistron is cap-dependent, while translation of the Renilla luciferase (HCV-Ren) cistron is driven off an HCV-IRES, rendering translation of this cistron cap-independent.\nFluorescence Polarization (FP) Assays: Recombinant DDX3X or eIF4A1 (1.5 μM) were incubated with 10 nM FAM-labelled RNA probe and test compounds for 10 min in FP buffer (14.4 mM HEPES-KOH (pH 8), 108 mM NaCl, 1 mM MgCl2, 14.4% glycerol, 0.1% DMSO, 2 mM DTT, 1 mM ATP) at room temperature in black, low-volume 384 well plates (Corning 3820). FP readings were performed using a Pherastar FS microplate reader (BMG Labtech). Compounds were tested at a final concentration of 10 μM.^S9 For ADP+Pi conditions, ATP was substituted with 1 mM ADP and 1 mM Na2HPO4. To assess potency of complex formation, proteins were titrated in the presence of 10 nM probe, 50 μM compounds and 1 mM ATP. Experiments were run in three replicates, with each replicate employing the same master mix of protein, probe and buffer split across the four test conditions (DMSO+three test compounds). Within each replicate, data was normalized such that the highest response across the four tested conditions (as raw AmP counts) was used as 100% relative change in polarization, and the lowest response across the four tested conditions was used as 0% relative change in polarization. Data was analyzed using GraphPad Prism 8.4.0, with a “[Agonist] vs. normalized response” nonlinear regression model used to determine the EC50 for stimulation of helicase-RNA probe binding in the presence of test compound."}, "eIF4A paralogs (eIF4A1)": {"system": "eIF4A paralogs (eIF4A1)", "test": "PISA assay in GBM0308 cell lysates, eIF4A", "type": "binding, human", "conditions": "GBM0308 lysate, compound 10 μM, AMP-PNP and (AG)8 RNA added", "source_text": "Derivatization-free target identification using a modified proteome integral solubility alteration (PISA) assay. The inventors next pursued proteome-wide target identification to better understand the target profiles of CSC-selective rocaglates. To enable cross-compound comparisons of target engagement, the inventors opted to use the Proteome Integral Solubility Alteration (PISA) assay,^29 a derivative of the mass spectrometry-based Cellular Thermal Shift Assay (MS-CETSA). In MS-CETSA,^30,31 target engagement is inferred through proteome-wide analysis of compound-induced changes to protein thermal stability; proteins with a shift in their half-maximal thermal denaturation temperature upon compound treatment are flagged as potential targets. The PISA assay obviates the need for MS-CETSA-derived thermal denaturation curves through curve integration by pooling of individual temperature points into a single “integral” sample for each treatment condition, thereby increasing throughput (FIG. 9). In contrast to MS-CETSA (which relies on curve comparisons), PISA determinations are performed by simply comparing soluble protein abundance levels between compound- and DMSO-treated samples. Importantly, protein fold-change measurements in PISA experiments generally scale with the thermal shift derived from CETSA experiments, and the magnitude of a thermal shift can inform on relative affinity between compounds and individual targets.^30,32-25 Maximal stability changes are protein-specific,^36 however, precluding estimations of preference for one target over another. Thus, PISA allows for simultaneous target profiling and comparisons of binding affinity between different compounds within a given target.\nOf note, we also detected stabilization of DDX3Y, a paralog which shares >90% sequence similarity with DDX3X.\nPISA assay in GBM0308 cell lysates: The PISA assay was performed in lysates as described by Gaetani and coworkers^S2 with slight modification. Pelleted GBM0308 cells were resuspended in ice-cold lysis buffer (1×PBS pH 7.4, 2 mM MgCl2, 0.5 mM AMP-PNP, 1 μM (AG)8 RNA, HALT protease inhibitor cocktail EDTA-free) and subjected to three freeze-thaw cycles with liquid nitrogen to extract lysate proteins. Thawing was performed at room temperature until ˜80% thawed, then completed on ice. Lysate was clarified by centrifugation for 10 minutes at 20,000 RCF and 4° C., transferred to a fresh Eppendorf tube, then centrifuged again for 10 minutes at 20,000 RCF and 4° C. to ensure removal of debris. Lysate concentration was determined using a Pierce BCA Protein Assay Kit and adjusted to 2.0 mg/mL in lysis buffer. Lysate was mixed 1:1 with a 2× solution of test compound or DMSO in lysis buffer, gently aspirated to ensure proper mixing, and incubated at room temperature for 10 minutes. […]"}, "[2]": {"target": "eIF4A1:FAM-labeled poly r(AG)8 (Homo sapiens, UniProt P60842)", "sequence (P60842 whole entry, species assumed)": "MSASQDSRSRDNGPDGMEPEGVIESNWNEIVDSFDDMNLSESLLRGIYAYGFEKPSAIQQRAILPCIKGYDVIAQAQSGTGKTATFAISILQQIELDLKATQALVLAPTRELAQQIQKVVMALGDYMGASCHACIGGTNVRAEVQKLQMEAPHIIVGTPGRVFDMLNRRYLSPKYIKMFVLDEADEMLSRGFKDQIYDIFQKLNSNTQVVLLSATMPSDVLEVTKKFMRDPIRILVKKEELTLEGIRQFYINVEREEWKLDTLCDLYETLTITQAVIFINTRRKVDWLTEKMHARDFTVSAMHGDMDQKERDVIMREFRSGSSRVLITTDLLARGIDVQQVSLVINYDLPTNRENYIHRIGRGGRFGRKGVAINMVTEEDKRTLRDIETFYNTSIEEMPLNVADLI", "test": "Fluorescence polarization (FP) RNA clamping assay, eIF4A1", "type": "binding", "conditions": "compound 10 μM, 1 mM ATP", "source_text": "as §1\nFluorescence Polarization (FP) Assays: Recombinant DDX3X or eIF4A1 (1.5 μM) were incubated with 10 nM FAM-labelled RNA probe and test compounds for 10 min in FP buffer (14.4 mM HEPES-KOH (pH 8), 108 mM NaCl, 1 mM MgCl2, 14.4% glycerol, 0.1% DMSO, 2 mM DTT, 1 mM ATP) at room temperature in black, low-volume 384 well plates (Corning 3820). FP readings were performed using a Pherastar FS microplate reader (BMG Labtech). Compounds were tested at a final concentration of 10 μM.^S9 For ADP+Pi conditions, ATP was substituted with 1 mM ADP and 1 mM Na2HPO4. To assess potency of complex formation, proteins were titrated in the presence of 10 nM probe, 50 μM compounds and 1 mM ATP. Experiments were run in three replicates, with each replicate employing the same master mix of protein, probe and buffer split across the four test conditions (DMSO+three test compounds). […] Data was analyzed using GraphPad Prism 8.4.0, with a “[Agonist] vs. normalized response” nonlinear regression model used to determine the EC50 for stimulation of helicase-RNA probe binding in the presence of test compound."}},
  "note": "Entries after “also recorded” stand apart in the source; their conditions may differ.",
  "data": [
    {"smiles": "CONC(=O)[C@H]1[C@@H](O)[C@@]2(O)c3c(OC)cc(OC)cc3O[C@@]2(c2ccc(Br)cc2)[C@@H]1c1ccccc1", "note": "[(−)-7, SDS-1-021]", "values": [
      {"measurement": "stimulation of DDX3X:(AG)8 complex formation in protein titration, in words", "setting": "[1]", "result": "clearly favored; also recorded: significant enhancement of binding stimulation"},
      {"measurement": "stimulation of DDX3X binding to RNA (change in polarization), in words", "setting": "[1]", "result": "stimulated RNA binding to a greater extent"},
      {"measurement": "thermal stabilization of eIF4A paralogs (PISA), in words", "setting": "eIF4A paralogs (eIF4A1)", "result": "stabilized"},
      {"measurement": "stimulation of eIF4A1 binding to RNA (change in polarization), in words", "setting": "[2]", "result": "strongly stimulated; also recorded: strongest clamping"}
    ]},
    {"smiles": "CONC(=O)[C@H]1[C@@H](O)[C@@]2(O)c3c(OC)cc(OC)cc3O[C@@]2(c2ccc(OC)cc2)[C@@H]1c1ccccc1", "note": "[(−)-5, CR-1-31b, reference compound]", "values": [
      {"measurement": "stimulation of DDX3X:(AG)8 complex formation in protein titration, in words", "setting": "[1]", "result": "significantly less efficacious"},
      {"measurement": "thermal stabilization of eIF4A paralogs (PISA), in words", "setting": "eIF4A paralogs (eIF4A1)", "result": "stabilization"},
      {"measurement": "stimulation of eIF4A1 binding to RNA (change in polarization), in words", "setting": "[2]", "result": "strongly stimulated"}
    ]},
    {"smiles": "COc1cc(OC)c2c(c1)O[C@@]1(c3ccc(Br)cc3)[C@H](c3ccccc3)[C@@H](C(=O)NS(=O)(=O)N(C)C)[C@@H](O)[C@@]21O", "note": "[(−)-20, (1R,2R,3S,3aR,8bS)-3a-(4-bromophenyl)-N—(N,N-dimethylsulfamoyl)-1,8b-dihydroxy-6,8-dimethoxy-3-phenyl-2,3,3a,8b-tetrahydro-1H-cyclopenta[b]benzofuran-2-carboxamide]", "values": [
      {"measurement": "stimulation of DDX3X:(AG)8 complex formation in protein titration, in words", "setting": "[1]", "result": "significant enhancement of binding stimulation"},
      {"measurement": "stimulation of DDX3X binding to RNA (change in polarization), in words", "setting": "[1]", "result": "stimulated RNA binding to a greater extent"},
      {"measurement": "thermal stabilization of eIF4A paralogs (PISA), in words", "setting": "eIF4A paralogs (eIF4A1)", "result": "stabilized"},
      {"measurement": "stimulation of eIF4A1 binding to RNA (change in polarization), in words", "setting": "[2]", "result": "strongly stimulated"}
    ]}
  ]
}
